Data set [1] has as its target T1, METTL10 (Homo sapiens, UniProt Q5JPI9).
T1 construct: His; made in house; host or cells: E. coli BL21
Description: MTase-Glo in vitro methylation assay, METTL10-mediated PIAS3 methylation. Type of data set: biochemical. Here is the method:
For the in vitro methylation assay, His‐METTL10 (1 µg) was incubated with recombinant human Histone H4 protein (20 ng; Abcam, ab198115) or GST‐PIAS3 (100 ng) of in methylation reaction buffer (50 mM Tris‐HCl (pH 8.0), 20 mM KCl, 5 mM DTT, 4 mM EDTA) containing 20 µM S‐(5′‐adenosyl)‐L‐methionine chloride dihydrochloride (SAM) at 37 °C for 1 h. The reaction was terminated by boiling the samples in SDS‐PAGE loading buffer, and the products were analyzed by immunoblotting.
(§1) To identify METTL10 inhibitors, an in‐silico screening was first conducted on an in‐house compound library comprising approximately 6000 structurally diverse molecules. Molecular docking simulations with the METTL10 protein identified 111 candidate compounds for further analysis. The methyltransferase activity of these candidates was assessed using the MTase‐Glo Methyltransferase Assay (Promega, V7601) according to the manufacturer's protocol. Briefly, the candidate compounds were preincubated with His‐METTL10 protein (1 µg) at 37 °C for 1 h in a methylation reaction buffer (50 mM Tris‐HCl (pH 8.0), 20 mM KCl, 5 mM DTT, 4 mM EDTA, and 20 µM SAM), followed by the addition of either the Histone H4 or PIAS3 peptide substrate for an additional 1 h. The reaction was then subjected to MTase‐Glo reagent buffer for 30 min, followed by MTase‐Glo detection buffer for another 30 min. Luminescence was measured using a luminometer (Promega), and IC50 values were calculated using GraphPad Prism 8 software.

Data set [2] concerns T2, METTL10.
T2 construct: purchased ICE Bioscience Inc
Kind of data set: MTase-Glo screening assay, METTL10 with Histone H4 peptide substrate. Type of data set: biochemical. The note with it: 10 µM. The protocol:
as §1

Data set [3] has as its system Flag-METTL10 protein in HEK293T cells. Kind of data set: Cycloheximide chase assay of Flag-METTL10 stability. Type of data set: cell-based. The following applies: 20 µM.
The subject of the next data set is MKN45 and AGS cells. Kind of data set: Colony formation assay. Type of data set: cell-based. The note with it: 10 and 20 µM. Here is the method: Cells (1000 cells/well) were seeded in six‐well plates and provided with fresh culture medium every 3 days. After 14 days of incubation, the medium was removed, and the cells were gently washed three times with room‐temperature PBS. The cells were then fixed with 1 mL of 4% paraformaldehyde per well for 15 min. Next, 1 mL of 0.1% crystal violet solution was added to each well and incubated for 10 min to stain the cells. The crystal violet solution was drained, and the wells were rinsed with running water to remove excess stain, followed by air drying and photography.

Data set [4] is described as follows: Acute toxicity, single intraperitoneal injection at escalating doses (LD50). The note with it: ICR, mouse, in vivo, ip, ICR mice, 24 h survival. Here is the method: For the acute toxic study, 8‐week‐old ICR mice (n = 6 per group) were administered a single intraperitoneal injection of LZQ‐02‐023‐01 at escalating doses. A vehicle‐treated group served as control. Survival was monitored continuously for 24 h postadministration. Additionally, another cohort of ICR mice (n = 5 per group) received a single intraperitoneal dose of LZQ‐02‐023‐01 at 125 mg/kg and were subsequently monitored daily for 7 days for clinical signs of toxicity, behavioral changes, body weight fluctuations, and mortality. At the conclusion of the observation period, animals were euthanized and subjected to a comprehensive gross necropsy. Major organs, including the liver, kidney, heart, lung, and spleen, were harvested for histopathological examination. For the chronic toxic study, 8‐week‐old ICR mice (n = 5 per group) received daily intraperitoneal injections of LZQ‐02‐023‐01 at a therapeutic dose of 40 mg/kg for 14 consecutive days. A vehicle‐treated group was included as a control. Throughout the treatment period, animals were monitored daily for clinical signs of toxicity and weighed every 2 days. At study termination, blood samples were collected for hematological and biochemical analyses. […]

The next data set deals with ATK orthotopic tumors. Description: Orthotopic ATK cell gastric cancer allograft model with flow cytometry of tumor-infiltrating cells. Type of data set: in vivo, C57BL/6 mice. Here is the method: Orthotopic gastric cancer models were established by surgically implanting 1 × 10⁶ METTL10‐overexpressing or vector control ATK cells into the gastric subserosal layer of C57BL/6 mice under aseptic conditions. Tumor tissues were harvested 20 days post‐implantation for subsequent analyses. In a separate cohort, mice bearing orthotopic tumors (1 × 10⁶ cells implanted) received subcutaneous administration of LZQ‐02‐023‐01 at a dose of 40 mg/kg/day, starting 7 days after tumor implantation. The treatment continued daily for 14 consecutive days. Tumor burden and therapeutic response were assessed at the end of the treatment period by excision and analysis of gastric tumors.
Tumor tissues were finely minced into approximately 1 mm^3 pieces and enzymatically digested in Hank's Balanced Salt Solution (HBSS) containing type IV collagenase (2357210, Gibco) at 37 °C for 1 h. The resulting cell suspensions were gently triturated and passed through an 80 µm cell strainer (22131209, Biosharp) to remove debris. Red blood cells were lysed using ACK lysis buffer (R1010, Solarbio) to yield a single‐cell suspension. Cells were subsequently stained with a cocktail of fluorochrome‐conjugated antibodies (1:200 dilution; details listed in Table S6, Supporting Information) and a fixable viability dye (1:200, 2365395, Invitrogen) for 30 min at 4 °C in the dark. After washing, the stained cells were analyzed using a Sony ID7000 spectral flow cytometer (Sony Biotechnology).
Paraffin sections were initially placed in an oven at 65 °C for 30 min to melt the paraffin. The slides were then immersed in two consecutive xylene baths for 10 min each to dewax the tissue, followed by hydration through a series of graded ethanol solutions. The sections were stained with hematoxylin for 10 min. After differentiation with 1% hydrochloric acid alcohol, the sections were blued with lithium carbonate and counterstained with eosin for 3 min. The slides were then dehydrated in graded ethanol and mounted with neutral resin. All pathological results were performed in a blinded manner by experienced gastrointestinal pathologists. For IHC staining, sections were processed in accordance with the manufacturer's protocol (MXB Biotechnologies). Briefly, antigen retrieval was conducted at 37 °C for 30 min, followed by blocking at room temperature for 10 min. The sections were subsequently incubated with the appropriate primary antibody overnight at 4 °C. The following day, biotin‐conjugated secondary antibodies were applied and incubated for 1 h, followed by streptavidin‐peroxidase incubation for 10 min. Diaminobenzidine (DAB) was employed as the chromogen for visualization, and hematoxylin was used for counterstaining. Imaging was performed using the Olympus VS200 microscope.
In general terms: A flow cytometer gives signals particle by particle.

[5] abbreviates: 40 mg/kg/day for 14 days, flow cytometry.

pIC50: −log10 of the molar value.

T1 sequence (Q5JPI9 1-291 isoform Q5JPI9-1): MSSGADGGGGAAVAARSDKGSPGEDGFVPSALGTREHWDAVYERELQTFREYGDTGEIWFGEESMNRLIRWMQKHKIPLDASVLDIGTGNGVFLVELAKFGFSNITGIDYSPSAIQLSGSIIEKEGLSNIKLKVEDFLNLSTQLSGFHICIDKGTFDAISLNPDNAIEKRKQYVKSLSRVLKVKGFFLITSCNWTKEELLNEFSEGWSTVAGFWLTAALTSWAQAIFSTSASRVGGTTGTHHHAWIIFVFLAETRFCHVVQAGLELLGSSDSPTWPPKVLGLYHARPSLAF

The term pIC50 denotes the IC50 on a negative log10 scale, so that one unit is a factor of ten. As usually defined, the LD50 is the dose at which mortality reaches 50%. Regarding `Cc1ccc(Nc2ncc3c(n2)N(C)C(=O)N(c2cccc(N)c2)C3)cn1` [LZQ-02-023-01, Three‐(3‐aminophenyl)‐1‐methyl‐7‐((6‐methylpyridin‐3‐yl)amino)‐3,4‐dihydropyrimido [4,5‐d] pyrimidin‐2 (1H)‐one], at METTL10 [1] (METTL10 activity toward GST-PIAS3), the “Structure-activity relationship, rank among structural analogs” value is on record as “most potent inhibitor among its structural analogs”. Further, the “Rank of potency among the 22 hit compounds” value on METTL10 [1] (METTL10 activity toward PIAS3) is “strongest potency”. Besides, at METTL10 [1] (MTase-Glo, bacteria-purified GST-PIAS3 substrate, read-out: IC50, inhibition of METTL10 activity toward PIAS3), the pIC50 was 4.93. For the same compound, the “Inhibition of METTL10 activity toward histone H4” value in the data set on METTL10 [2] is on record as “significantly inhibited”. For the same compound, the “Half-life of METTL10 protein” value in data set [3] was “remained unchanged”. Also, in the data set on MKN45 and AGS cells, the “GC cell proliferation (colony formation)” value is “significantly inhibited”. In addition, in data set [4], the LD50 at 24 h came to 213 mg/kg. Besides, in the data set with ATK orthotopic tumors (40 mg/kg/day for 14 consecutive days, ATK orthotopic model, vs vehicle), the Tumor burden result is reported as “significant reduction in tumor burden”. Moreover, in the data set on ATK orthotopic tumors (40 mg/kg/day for 14 days), the “Proliferative activity (Ki-67 expression) of tumors” value is reported as “reduced proliferative activity”. In the data set with ATK orthotopic tumors (setting [5]), the “Tumor-infiltrating B cells” value is recorded as “modest decrease”; the “Tumor-infiltrating T lymphocytes (CD4+ and CD8+)” value was “moderate increase”.

(Values after paper PMC12752606, “METTL10‐Mediated PIAS3 Methylation Links Purine Metabolism to Gastric Cancer Progression” (Advanced Science, 2025).)
